This passage reports T/C results from PubChem BioAssay AID248 (DTP/NCI, 2004).

In the test the test system is L1210 leukemia ip in BDF1 mice, survival T/C. The test can be described thus: NCI In Vivo Anticancer Drug Screen. Data for tumor model L1210 Leukemia (intraperitoneal) in B6D2F1 (BDF1) mice. To be noted: endpoint: mean survival time, higher = longer survival. The essentials: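 Survival endpoint. Drug-treated group vs vehicle group, expressed as T divided by C. Tumor passaged by transplantation.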

Where [1] appears, read: dose: 100.0 mg/kg/injection, schedule: Q01DX001 (ip), vehicle: Klucel (hydroxypropylcellulose) (HPC).
[2] abbreviates: dose: 200.0 mg/kg/injection, schedule: Q01DX001 (ip), vehicle: Klucel (hydroxypropylcellulose) (HPC).
The mark [3] stands for this setting: dose: 400.0 mg/kg/injection, schedule: Q01DX001 (ip), vehicle: Klucel (hydroxypropylcellulose) (HPC).
The mark [4] stands for this setting: dose: 100.0 mg/kg/injection, schedule: Q01DX001 (ip), vehicle: saline.
Setting [5] is: dose: 200.0 mg/kg/injection, schedule: Q01DX001 (ip), vehicle: saline.
Where [6] appears, read: dose: 100.0 mg/kg/injection, schedule: Q01DX009 (ip), vehicle: saline with Tween-80.
The mark [7] stands for this setting: dose: 100.0 mg/kg/injection, schedule: Q04DX003 (ip), vehicle: saline with Tween-80.
[8] abbreviates: dose: 200.0 mg/kg/injection, schedule: Q04DX003 (ip), vehicle: saline with Tween-80.
[9] abbreviates: dose: 400.0 mg/kg/injection, schedule: Q01DX009 (ip), vehicle: saline with Tween-80.
[10] abbreviates: dose: 400.0 mg/kg/injection, schedule: Q04DX003 (ip), vehicle: saline with Tween-80.
Setting [11] is: dose: 50.0 mg/kg/injection, schedule: Q01DX001 (ip), vehicle: Klucel (hydroxypropylcellulose) (HPC).
Where [12] appears, read: dose: 100.0 mg/kg/injection, schedule: Q04DX003 (ip), vehicle: Klucel (hydroxypropylcellulose) (HPC).
Where [13] appears, read: dose: 75.0 mg/kg/injection, schedule: Q01DX001 (ip), vehicle: saline.
The mark [14] stands for this setting: dose: 150.0 mg/kg/injection, schedule: Q01DX001 (ip), vehicle: saline.
Setting [15] is: dose: 400.0 mg/kg/injection, schedule: Q01DX001 (ip), vehicle: saline.
Setting [16] is: dose: 200.0 mg/kg/injection, schedule: Q01DX009 (ip), vehicle: saline with Tween-80.

“And” between values parts separate entries of the source, which are not always exact repeats. Identical values can stand only once. Toxic doses and inconclusive results are not listed.

For the molecule `Nc1ccc2nc3ccc(=O)cc-3n(-c3ccccc3)c2c1`, the T/C by setting is: (dose: 0.5 mg/kg/injection, schedule: Q01DX Z (ip), vehicle: methylcellulose (MC)) 108 % of control; (dose: 0.9 mg/kg/injection, schedule: Q01DX Z (ip), vehicle: methylcellulose (MC)) 96 % of control and 103 % of control; (dose: 1.0 mg/kg/injection, schedule: Q01DX Z (ip), vehicle: methylcellulose (MC)) 112 % of control; (dose: 1.4 mg/kg/injection, schedule: Q01DX Z (ip), vehicle: methylcellulose (MC)) 109 % of control and 110 % of control; (dose: 2.0 mg/kg/injection, schedule: Q01DX Z (ip), vehicle: methylcellulose (MC)) 116 % of control; (dose: 2.1 mg/kg/injection, schedule: Q01DX Z (ip), vehicle: methylcellulose (MC)) 107 % of control and 119 % of control. The T/C is 105 % of control and 122 % of control (dose: 3.2 mg/kg/injection, schedule: Q01DX Z (ip), vehicle: methylcellulose (MC)); 96 % of control (dose: 5.0 mg/kg/injection, schedule: Q01DX001 (ip), vehicle: carboxymethylcellulose (CMC)); 105 % of control (dose: 10.0 mg/kg/injection, schedule: Q01DX001 (ip), vehicle: carboxymethylcellulose (CMC)); 111 % of control (dose: 20.0 mg/kg/injection, schedule: Q01DX001 (ip), vehicle: carboxymethylcellulose (CMC)); 113 % of control (dose: 40.0 mg/kg/injection, schedule: Q01DX001 (ip), vehicle: carboxymethylcellulose (CMC)).
`O=C(O)c1cc2ccccc2oc1=O`: the T/C was 101 % of control (dose: 10.0 mg/kg/injection, schedule: Q01DX009 (ip), vehicle: Klucel (hydroxypropylcellulose) (HPC)); 95 % of control under setting [1]; 97 % of control under setting [2]; 98 % of control under setting [3].
On to `O=C1C(Cl)=CC(=NBr)C=C1Cl`, for which the T/C by setting is: (dose: 12.5 mg/kg/injection, schedule: Q04DX002 (ip), vehicle: Klucel (hydroxypropylcellulose) (HPC)) 88 % of control; (dose: 25.0 mg/kg/injection, schedule: Q04DX002 (ip), vehicle: Klucel (hydroxypropylcellulose) (HPC)) 92 % of control; (dose: 50.0 mg/kg/injection, schedule: Q04DX002 (ip), vehicle: Klucel (hydroxypropylcellulose) (HPC)) 98 % of control.
As for `CC(CC(=O)N1CCCCC1)CC(=O)N1CCCCC1`, the T/C runs as follows: under setting [4], 94 % of control; under setting [5], 104 % of control.
With `CC(C)(C)OC(=O)/N=N/C(=O)OC(C)(C)C`, the T/C reads like this: (dose: 100.0 mg/kg/injection, schedule: Q01DX001 (ip), vehicle: carboxymethylcellulose (CMC)) 102 % of control; (dose: 200.0 mg/kg/injection, schedule: Q01DX001 (ip), vehicle: carboxymethylcellulose (CMC)) 94 % of control; (dose: 400.0 mg/kg/injection, schedule: Q01DX001 (ip), vehicle: carboxymethylcellulose (CMC)) 94 % of control.
Turning to `O=c1cc(-c2ccccc2)[nH]c(=S)[nH]1`, the T/C runs as follows: under setting [6], 94 % of control; under setting [7], 101 % of control; under setting [8], 103 % of control; under setting [9], 89 % of control; under setting [10], 106 % of control.
Turning to `CC1(C)N=C(N)N=C(N)N1c1cccc(OCCCOc2cccc(N)c2)c1`, the T/C is, setting by setting: (dose: 25.0 mg/kg/injection, schedule: Q01DX001 (ip), vehicle: saline) 97 % of control; (dose: 50.0 mg/kg/injection, schedule: Q01DX001 (ip), vehicle: saline) 98 % of control.
In the case of `CCCCN(C)/N=N/c1[nH]ncc1C(=O)OCC`, the T/C is, setting by setting: (dose: 52.0 mg/kg/injection, schedule: Q01DX009 (ip), vehicle: other) 119 % of control; (dose: 78.0 mg/kg/injection, schedule: Q01DX009 (ip), vehicle: other) 119 % of control; (dose: 266.0 mg/kg/injection, schedule: Q01DX007 (ip), vehicle: saline) 154 % of control; (dose: 266.0 mg/kg/injection, schedule: Q01DX009 (ip), vehicle: other) 168 % of control; (dose: 400.0 mg/kg/injection, schedule: Q01DX007 (ip), vehicle: saline) 174 % of control.
As for `CN(C1=CC(=O)C(=O)c2ccccc21)c1ccccc1`, the T/C is, setting by setting: under setting [11], 95 % of control; under setting [1], 97 % of control; under setting [2], 97 % of control.
Take `O=[N+]([O-])c1ccccc1N=N/C(Cc1ccccc1)=N\Nc1ccccc1`: the T/C by setting is: (dose: 50.0 mg/kg/injection, schedule: Q01DX009 (ip), vehicle: Klucel (hydroxypropylcellulose) (HPC)) 92 % of control; (dose: 100.0 mg/kg/injection, schedule: Q01DX009 (ip), vehicle: Klucel (hydroxypropylcellulose) (HPC)) 92 % of control; under setting [12], 89 % of control; (dose: 200.0 mg/kg/injection, schedule: Q01DX009 (ip), vehicle: Klucel (hydroxypropylcellulose) (HPC)) 93 % of control; (dose: 400.0 mg/kg/injection, schedule: Q01DX009 (ip), vehicle: Klucel (hydroxypropylcellulose) (HPC)) 94 % of control; (dose: 400.0 mg/kg/injection, schedule: Q04DX003 (ip), vehicle: Klucel (hydroxypropylcellulose) (HPC)) 92 % of control.
Take `COC(=O)c1ccc2c(c1)NP(=O)(c1ccccc1)S2` (stereo unspecified): the T/C reads like this: under setting [13], 98 % of control; under setting [14], 104 % of control; (dose: 300.0 mg/kg/injection, schedule: Q01DX001 (ip), vehicle: saline) 98 % of control.
With `Cc1cc(N)nc(=O)n1C1OC(CO)C(O)C1O` (stereo unspecified), the T/C was 96 % of control under setting [4], 102 % of control under setting [5] and 101 % of control under setting [15].
For `O=C1C=C2CCN(C(=O)c3ccccc3)CC2O1` (stereo unspecified) the same measures were 100 % of control, 105 % of control and 100 % of control.
Regarding `COc1ccc(CCN)cc1F`, the T/C runs as follows: (dose: 100.0 mg/kg/injection, schedule: Q04DX002 (ip), vehicle: Klucel (hydroxypropylcellulose) (HPC)) 98 % of control; (dose: 200.0 mg/kg/injection, schedule: Q04DX002 (ip), vehicle: Klucel (hydroxypropylcellulose) (HPC)) 102 % of control.
Regarding `Cc1ccc(NC(=O)NCCCl)c2c1CCC2`, the T/C under setting [1] was 95 % of control, the T/C under setting [2] is 92 % of control and the T/C under setting [3] is 96 % of control.
For the molecule `Oc1c(Cl)cc(Cl)cc1C=NCC1CCC(CN=Cc2cc(Cl)cc(Cl)c2O)CC1` (stereo unspecified), the T/C is, setting by setting: under setting [6], 92 % of control; under setting [16], 92 % of control; under setting [9], 94 % of control.
Turning to `c1coc(-c2ncc3cnccn23)c1`, the T/C (dose: 50.0 mg/kg/injection, schedule: Q01DX005 (ip), vehicle: saline) is 111 % of control and the T/C (dose: 100.0 mg/kg/injection, schedule: Q01DX005 (ip), vehicle: saline) is 108 % of control.
Turning to `Oc1[nH]c2ccccc2c1N=Nc1ccccn1`, the T/C runs as follows: (dose: 100.0 mg/kg/injection, schedule: Q01DX001 (ip), vehicle: other) 93 % of control; (dose: 200.0 mg/kg/injection, schedule: Q01DX001 (ip), vehicle: other) 101 % of control; (dose: 400.0 mg/kg/injection, schedule: Q01DX001 (ip), vehicle: other) 104 % of control.
For `CSC(=O)Oc1ccc([N+](=O)[O-])cc1`, the T/C under setting [6] is 106 % of control; the T/C under setting [7] was 104 % of control; the T/C under setting [16] was 96 % of control; the T/C under setting [8] is 100 % of control; the T/C under setting [9] was 101 % of control; the T/C under setting [10] was 91 % of control.
Turning to `CC(Br)C(=O)NC(CC(N)=O)C(=O)O` (stereo unspecified), the T/C was 93 % of control under setting [6] and 91 % of control under setting [16].
Take `COC(=O)c1ccc[n+](Cc2c(Cl)cccc2Cl)c1`: the T/C was 95 % of control under setting [13] and 96 % of control under setting [14].
With `CC(C)(C)C1CCC(NC2=NCCO2)CC1` (stereo unspecified), the T/C runs as follows: (dose: 25.0 mg/kg/injection, schedule: Q01DX001 (ip), vehicle: Klucel (hydroxypropylcellulose) (HPC)) 103 % of control; under setting [11], 104 % of control; (dose: 50.0 mg/kg/injection, schedule: Q04DX003 (ip), vehicle: Klucel (hydroxypropylcellulose) (HPC)) 96 % of control; under setting [1], 93 % of control and 100 % of control; under setting [12], 102 % of control.
